Experimental data: the supplement of paper PMC11208160

assay: recombinant UMI read abundance after kanamycin selection (control-corrected) (log10(CPM+1)); higher = more efficient recombination; extreme values may be limits of the assay; sequences stand for … in AGTGCAGAGAAAATCGGCCAGTTTTCTCTGCCTGCAGTCCGCATGCCGTGGGACCCCTTGGGTTCTAACCTGTTGCCTAGATTTATGCAGCGGACTGCCTTTCTCCCAAAGTGATAAACCGG…AGGTTGGTTTCACT; site = the 11-nt donor
In short: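 Pooled Escherichia coli screen of donor and donor-binding-loop pairs for the IS621 bridge recombinase. Each pair sits with a 12-nt UMI on a plasmid carrying a promoterless kanamycin gene. The library was co-electroporated with a target plasmid encoding a fixed target and T7-inducible recombinase, then plated with IPTG (0.07 mM) plus kanamycin, or unselected, each in two replicates. Recombinant UMIs were PCR-amplified across the donor–target junction and sequenced. Counts became CPM, averaged over replicates, scaled by control-derived factors and reported as log10(CPM+1).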

Row | Sequence | recombinant UMI read abundance (log10)
1 | CGTTACACATGGACCGGTTTTCCCGGTAATCCGTATTTGAG (site CGTTAGACTCT) | 0.0129
2 | CGTTACACATGGACCGGTTTTCCCGGTAATCCGTATTTGAG (site CGTTATACTCT) | 0.202
3 | CGTTAGACATGGACCGGTTTTCCCGGTAATCCGTATTTGAC (site CGTTAGACTAT) | 0.0518
4 | CGTTAGACATGGACCGGTTTTCCCGGTAATCCGTATTTGAC (site CGTTAGACTCT) | 0.0193
5 | CGTTAGACATGGACCGGTTTTCCCGGTAATCCGTATTTGAC (site CGTTAGACTGT) | 1.58
6 | CGTTAGACATGGACCGGTTTTCCCGGTAATCCGTATTTGAC (site CGTTAGACTTT) | 0.0068
7 | CGTTAGACATGGACCGGTTTTCCCGGTAATCCGTATTTGAG (site AGTTAGACTCT) | 0.0858
8 | CGTTAGACATGGACCGGTTTTCCCGGTAATCCGTATTTGAG (site CATTAGACTCT) | 0.498
9 | CGTTAGACATGGACCGGTTTTCCCGGTAATCCGTATTTGAG (site CCTTAGACTCT) | 0.0362
10 | CGTTAGACATGGACCGGTTTTCCCGGTAATCCGTATTTGAG (site CGATAGACTCT) | 0.838
11 | CGTTAGACATGGACCGGTTTTCCCGGTAATCCGTATTTGAG (site CGCTAGACTCT) | 0.501
12 | CGTTAGACATGGACCGGTTTTCCCGGTAATCCGTATTTGAG (site CGGTAGACTCT) | 0.157
13 | CGTTAGACATGGACCGGTTTTCCCGGTAATCCGTATTTGAG (site CGTAAGACTCT) | 0
14 | CGTTAGACATGGACCGGTTTTCCCGGTAATCCGTATTTGAG (site CGTCAGACTCT) | 0.944
15 | CGTTAGACATGGACCGGTTTTCCCGGTAATCCGTATTTGAG (site CGTGAGACTCT) | 0.0124
16 | CGTTAGACATGGACCGGTTTTCCCGGTAATCCGTATTTGAG (site CGTTAAACTCT) | 0.893
17 | CGTTAGACATGGACCGGTTTTCCCGGTAATCCGTATTTGAG (site CGTTACACTCT) | 0.00825
18 | CGTTAGACATGGACCGGTTTTCCCGGTAATCCGTATTTGAG (site CGTTAGACTAT) | 1.08
19 | CGTTAGACATGGACCGGTTTTCCCGGTAATCCGTATTTGAG (site CGTTAGACTCA) | 0.0196
20 | CGTTAGACATGGACCGGTTTTCCCGGTAATCCGTATTTGAG (site CGTTAGACTCC) | 0.374
21 | CGTTAGACATGGACCGGTTTTCCCGGTAATCCGTATTTGAG (site CGTTAGACTCG) | 0
22 | CGTTAGACATGGACCGGTTTTCCCGGTAATCCGTATTTGAG (site CGTTAGACTCT) | 1.55
23 | CGTTAGACATGGACCGGTTTTCCCGGTAATCCGTATTTGAG (site CGTTAGACTGT) | 0.00425

Row | Sequence | recombinant UMI read abundance (log10)
24 | CGTTAGACATGGACCGGTTTTCCCGGTAATCCGTATTTGAG (site CGTTAGACTTT) | 0.315
25 | CGTTAGACATGGACCGGTTTTCCCGGTAATCCGTATTTGAG (site CGTTAGCCTCT) | 0.021
26 | CGTTAGACATGGACCGGTTTTCCCGGTAATCCGTATTTGAG (site CGTTAGGCTCT) | 0.214
27 | CGTTAGACATGGACCGGTTTTCCCGGTAATCCGTATTTGAG (site CGTTAGTCTCT) | 0.506
28 | CGTTAGACATGGACCGGTTTTCCCGGTAATCCGTATTTGAG (site CGTTATACTCT) | 0.0136
29 | CGTTAGACATGGACCGGTTTTCCCGGTAATCCGTATTTGAG (site CGTTCGACTCT) | 0.00605
30 | CGTTAGACATGGACCGGTTTTCCCGGTAATCCGTATTTGAG (site CGTTGGACTCT) | 0.013
31 | CGTTAGACATGGACCGGTTTTCCCGGTAATCCGTATTTGAG (site CGTTTGACTCT) | 0.0164
32 | CGTTAGACATGGACCGGTTTTCCCGGTAATCCGTATTTGAG (site CTTTAGACTCT) | 0.00778
33 | CGTTAGACATGGACCGGTTTTCCCGGTAATCCGTATTTGAG (site GGTTAGACTCT) | 0.0132
34 | CGTTAGACATGGACCGGTTTTCCCGGTAATCCGTATTTGAG (site TGTTAGACTCT) | 0.0126
35 | CGTTAGACATGGACCGGTTTTCCCGGTAATCCGTATTTGGG (site CGTTAGACTCA) | 0
36 | CGTTAGACATGGACCGGTTTTCCCGGTAATCCGTATTTGGG (site CGTTAGACTCC) | 0.0132
37 | CGTTAGACATGGACCGGTTTTCCCGGTAATCCGTATTTGGG (site CGTTAGACTCG) | 0.0116
38 | CGTTAGACATGGACCGGTTTTCCCGGTAATCCGTATTTGGG (site CGTTAGACTCT) | 0.512
39 | CGTTAGACATGGACCGGTTTTCCCGGTAATCCGTATTTGTG (site CGTTAGACTCA) | 1.14
40 | CGTTAGACATGGACCGGTTTTCCCGGTAATCCGTATTTGTG (site CGTTAGACTCC) | 0.0241
41 | CGTTAGACATGGACCGGTTTTCCCGGTAATCCGTATTTGTG (site CGTTAGACTCG) | 0.198
42 | CGTTAGACATGGACCGGTTTTCCCGGTAATCCGTATTTGTG (site CGTTAGACTCT) | 0.0332
43 | CGTTAGTCATGGACCGGTTTTCCCGGTAATCCGTATTTGAG (site CGTTAGACTCT) | 0.0321
44 | CGTTAGTCATGGACCGGTTTTCCCGGTAATCCGTATTTGAG (site CGTTAGCCTCT) | 0.0076
45 | CGTTAGTCATGGACCGGTTTTCCCGGTAATCCGTATTTGAG (site CGTTAGGCTCT) | 0.0227
46 | CGTTAGTCATGGACCGGTTTTCCCGGTAATCCGTATTTGAG (site CGTTAGTCTCT) | 2.05

Row | Sequence | recombinant UMI read abundance (log10)
47 | CGTTCACCATGGACCGGTTTTCCCGGTAATCCGTATTTGCT (site CGATCATCTAG) | 0
48 | CGTTCACCATGGACCGGTTTTCCCGGTAATCCGTATTTGCT (site CGTTCACCTAG) | 0.00366
49 | CGTTCATCATGGACCGGTTTTCCCGGTAATCCGTATTTGAT (site CGATCATCTAG) | 0
50 | CGTTCATCATGGACCGGTTTTCCCGGTAATCCGTATTTGAT (site CGTTCATCTAT) | 0
51 | CGTTCGACATGGACCGGTTTTCCCGGTAATCCGTATTTGAG (site CGTTAGACTCT) | 0.0143
52 | CGTTCGACATGGACCGGTTTTCCCGGTAATCCGTATTTGAG (site CGTTCGACTCT) | 0.635
53 | CGTTCGACATGGACCGGTTTTCCCGGTAATCCGTATTTGAG (site CGTTGGACTCT) | 0.0108
54 | CGTTCGACATGGACCGGTTTTCCCGGTAATCCGTATTTGAG (site CGTTTGACTCT) | 0.0134
55 | CGTTGAACATGGACCGGTTTTCCCGGTAATCCGTATTTGGA (site CGTTGAACTTC) | 0.945
56 | CGTTGAGCATGGACCGGTTTTCCCGGTAATCCGTATTTGCG (site CGTTGAGCTCG) | 1.2
57 | CGTTGGGCATGGACCGGTTTTCCCGGTAATCCGTATTTGCT (site CGTTAGGCTAG) | 0.41
58 | CGTTGGGCATGGACCGGTTTTCCCGGTAATCCGTATTTGCT (site CGTTCGGCTAG) | 0
59 | CGTTGGGCATGGACCGGTTTTCCCGGTAATCCGTATTTGCT (site CGTTGGGCTAG) | 1.65
60 | CGTTGGGCATGGACCGGTTTTCCCGGTAATCCGTATTTGCT (site CGTTTGGCTAG) | 0
61 | CGTTGTCCATGGACCGGTTTTCCCGGTAATCCGTATTTGAA (site CGTTGTCCTTT) | 0.00747
62 | CGTTGTCCATGGACCGGTTTTCCCGGTAATCCGTATTTGTA (site CGTTGTCCTTA) | 0.0342
63 | CGTTTAACATGGACCGGTTTTCCCGGTAATCCGTATTTGGC (site CGTTTAACTGC) | 0.793
64 | CGTTTAGCATGGACCGGTTTTCCCGGTAATCCGTATTTGCT (site CGTTTAGCTAG) | 0
65 | CGTTTAGCATGGACCGGTTTTCCCGGTAATCCGTATTTGCT (site CGTTTCGCTAG) | 0
66 | CGTTTAGCATGGACCGGTTTTCCCGGTAATCCGTATTTGCT (site CGTTTGGCTAG) | 0
67 | CGTTTAGCATGGACCGGTTTTCCCGGTAATCCGTATTTGCT (site CGTTTTGCTAG) | 0
68 | CGTTTGACATGGACCGGTTTTCCCGGTAATCCGTATTTGCT (site CGTTTGACTAG) | 2.38
